Reference: article PMC8115619, “Generation of a chemical genetic model for JAK3” (Scientific Reports, 2021)

Legend:
Format in all cases: biochemical
Conditions in all cases: 1 µM inhibitor, mean
Aurora A = Aurora A (Homo sapiens, UniProt O14965); test: Selectivity screen Aurora A
BRSK2 = BRSK2 (Homo sapiens, UniProt Q8IWQ3); test: Selectivity screen BRSK2
Method: (§1) For the in vitro kinase assay, JAK3 (5–20 mU diluted in 50 mM Tris pH 7.5, 0.1 mM EGTA, 0.05% β-mercaptoethanol, 1 mg/ml BSA) was assayed against PDKtide ([…]) in a final volume of 25.5 µl containing 50 mM Tris pH 7.5, 0.1 mM EGTA, 0.05% β-mercaptoethanol, 100 µM substrate peptide, 10 mM magnesium acetate and 0.02 mM [33P-γ-ATP] (50–1000 cpm/pmole) and incubated for 30 min at room temperature. Assays were started by the addition of the ATP and stopped by addition of 5 µl of 0.5 M (3%) orthophosphoric acid and then harvested onto P81 Unifilter plates with a wash buffer of 50 mM orthophosphoric acid. To determine the Km for ATP, assays were run using 1, 5, 10, 20, 50, 100, 200, 400, 500 μM ATP and Km derived by non-linear regression fitting to the Michaelis–Menten equation v = Vmax[S]/(Km + [S]). IC50 values for inhibitors via non-linear regression using a parameter model: Y = Bottom + (Top–Bottom)/(1 + (IC50/X)^HillSlope). Non-linear regression was carried out in Prism (version 8). In vitro selectivity screen was carried out as described previously.

CAMK1 = CAMK1 (Homo sapiens, UniProt Q14012); test: Selectivity screen CAMK1
Method: as §1

CAMKKb = CAMKKb (Homo sapiens, UniProt Q96RR4); test: Selectivity screen CAMKKb
CDK9-Cyclin T1 = CDK9-Cyclin T1 (Homo sapiens, UniProt P50750); test: Selectivity screen CDK9-Cyclin T1
Method: as §1

CHK2 = CHK2 (Homo sapiens, UniProt O96017); test: Selectivity screen CHK2
Method: as §1

CK1γ2 = CK1γ2 (Homo sapiens, UniProt P78368); test: Selectivity screen CK1γ2
Method: as §1

CK2 = CK2 (Homo sapiens, UniProt P68400); test: Selectivity screen CK2
Method: as §1

DYRK3 = DYRK3 (Homo sapiens, UniProt O43781); test: Selectivity screen DYRK3
Method: as §1

EPH-A4 = EPH-A4 (Homo sapiens, UniProt P54764); test: Selectivity screen EPH-A4
Method: as §1

ERK5 = ERK5 (Homo sapiens, UniProt Q13164); test: Selectivity screen ERK5
Method: as §1

FGF-R1 = FGF-R1 (Homo sapiens, UniProt P11362); test: Selectivity screen FGF-R1
Method: as §1

IKKb = IKKb (Homo sapiens, UniProt O14920); test: Selectivity screen IKKb
Chain of IKKb (O14920 whole entry): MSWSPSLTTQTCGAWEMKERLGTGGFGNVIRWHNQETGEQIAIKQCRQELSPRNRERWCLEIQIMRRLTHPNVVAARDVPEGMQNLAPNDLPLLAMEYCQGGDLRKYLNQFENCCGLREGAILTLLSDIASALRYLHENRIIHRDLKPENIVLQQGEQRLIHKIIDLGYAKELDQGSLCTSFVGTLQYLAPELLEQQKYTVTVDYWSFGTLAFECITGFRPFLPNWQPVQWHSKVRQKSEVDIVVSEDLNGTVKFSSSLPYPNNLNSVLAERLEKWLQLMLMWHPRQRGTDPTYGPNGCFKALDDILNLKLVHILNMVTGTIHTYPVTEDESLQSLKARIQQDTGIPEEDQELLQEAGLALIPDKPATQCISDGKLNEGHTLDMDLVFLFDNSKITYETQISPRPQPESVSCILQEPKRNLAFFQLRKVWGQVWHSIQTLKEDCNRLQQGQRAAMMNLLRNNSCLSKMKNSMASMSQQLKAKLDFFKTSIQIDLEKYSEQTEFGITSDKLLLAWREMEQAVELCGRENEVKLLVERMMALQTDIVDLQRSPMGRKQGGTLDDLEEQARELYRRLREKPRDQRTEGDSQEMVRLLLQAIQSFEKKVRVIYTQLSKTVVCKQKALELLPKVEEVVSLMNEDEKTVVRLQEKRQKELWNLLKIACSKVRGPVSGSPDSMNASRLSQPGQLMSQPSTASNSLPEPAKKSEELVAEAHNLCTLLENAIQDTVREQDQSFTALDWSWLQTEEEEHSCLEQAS
Method: as §1

IR = IR (Homo sapiens, UniProt P06213); test: Selectivity screen IR
Method: as §1

IRAK1 = IRAK1 (Homo sapiens, UniProt P51617); test: Selectivity screen IRAK1
Method: as §1

IRAK4 = IRAK4 (Homo sapiens, UniProt Q9NWZ3); test: Selectivity screen IRAK4
Method: as §1

LKB1 = LKB1 (Homo sapiens, UniProt Q15831); test: Selectivity screen LKB1
Method: as §1

MAP4K5 = MAP4K5 (Homo sapiens, UniProt Q9Y4K4); test: Selectivity screen MAP4K5
Method: as §1

MARK1 = MARK1 (Homo sapiens, UniProt Q9P0L2); test: Selectivity screen MARK1
Method: as §1

MARK3 = MARK3 (Homo sapiens, UniProt P27448); test: Selectivity screen MARK3
Chain of MARK3 (P27448 whole entry): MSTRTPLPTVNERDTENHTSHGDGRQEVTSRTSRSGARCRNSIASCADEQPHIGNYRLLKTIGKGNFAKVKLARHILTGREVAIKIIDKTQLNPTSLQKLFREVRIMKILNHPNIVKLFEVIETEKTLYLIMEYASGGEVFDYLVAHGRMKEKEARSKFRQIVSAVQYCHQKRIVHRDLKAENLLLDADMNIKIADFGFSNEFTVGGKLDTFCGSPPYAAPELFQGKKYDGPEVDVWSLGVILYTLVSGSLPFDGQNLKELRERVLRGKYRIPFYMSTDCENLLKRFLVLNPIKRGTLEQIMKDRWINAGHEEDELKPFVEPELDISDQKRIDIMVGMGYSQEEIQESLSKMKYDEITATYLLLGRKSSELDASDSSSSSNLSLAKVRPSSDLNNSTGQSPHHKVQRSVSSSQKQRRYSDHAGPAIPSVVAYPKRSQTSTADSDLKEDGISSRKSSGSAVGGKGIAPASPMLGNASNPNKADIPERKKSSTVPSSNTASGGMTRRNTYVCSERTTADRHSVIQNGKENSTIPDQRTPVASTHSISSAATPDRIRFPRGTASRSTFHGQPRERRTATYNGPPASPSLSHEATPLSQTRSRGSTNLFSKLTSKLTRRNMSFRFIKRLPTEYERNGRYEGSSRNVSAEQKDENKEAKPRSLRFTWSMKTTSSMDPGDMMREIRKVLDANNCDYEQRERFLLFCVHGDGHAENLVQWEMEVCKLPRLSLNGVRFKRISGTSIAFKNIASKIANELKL
Method: as §1

MINK1 = MINK1 (Homo sapiens, UniProt Q8N4C8); test: Selectivity screen MINK1
Chain of MINK1 (Q8N4C8 whole entry): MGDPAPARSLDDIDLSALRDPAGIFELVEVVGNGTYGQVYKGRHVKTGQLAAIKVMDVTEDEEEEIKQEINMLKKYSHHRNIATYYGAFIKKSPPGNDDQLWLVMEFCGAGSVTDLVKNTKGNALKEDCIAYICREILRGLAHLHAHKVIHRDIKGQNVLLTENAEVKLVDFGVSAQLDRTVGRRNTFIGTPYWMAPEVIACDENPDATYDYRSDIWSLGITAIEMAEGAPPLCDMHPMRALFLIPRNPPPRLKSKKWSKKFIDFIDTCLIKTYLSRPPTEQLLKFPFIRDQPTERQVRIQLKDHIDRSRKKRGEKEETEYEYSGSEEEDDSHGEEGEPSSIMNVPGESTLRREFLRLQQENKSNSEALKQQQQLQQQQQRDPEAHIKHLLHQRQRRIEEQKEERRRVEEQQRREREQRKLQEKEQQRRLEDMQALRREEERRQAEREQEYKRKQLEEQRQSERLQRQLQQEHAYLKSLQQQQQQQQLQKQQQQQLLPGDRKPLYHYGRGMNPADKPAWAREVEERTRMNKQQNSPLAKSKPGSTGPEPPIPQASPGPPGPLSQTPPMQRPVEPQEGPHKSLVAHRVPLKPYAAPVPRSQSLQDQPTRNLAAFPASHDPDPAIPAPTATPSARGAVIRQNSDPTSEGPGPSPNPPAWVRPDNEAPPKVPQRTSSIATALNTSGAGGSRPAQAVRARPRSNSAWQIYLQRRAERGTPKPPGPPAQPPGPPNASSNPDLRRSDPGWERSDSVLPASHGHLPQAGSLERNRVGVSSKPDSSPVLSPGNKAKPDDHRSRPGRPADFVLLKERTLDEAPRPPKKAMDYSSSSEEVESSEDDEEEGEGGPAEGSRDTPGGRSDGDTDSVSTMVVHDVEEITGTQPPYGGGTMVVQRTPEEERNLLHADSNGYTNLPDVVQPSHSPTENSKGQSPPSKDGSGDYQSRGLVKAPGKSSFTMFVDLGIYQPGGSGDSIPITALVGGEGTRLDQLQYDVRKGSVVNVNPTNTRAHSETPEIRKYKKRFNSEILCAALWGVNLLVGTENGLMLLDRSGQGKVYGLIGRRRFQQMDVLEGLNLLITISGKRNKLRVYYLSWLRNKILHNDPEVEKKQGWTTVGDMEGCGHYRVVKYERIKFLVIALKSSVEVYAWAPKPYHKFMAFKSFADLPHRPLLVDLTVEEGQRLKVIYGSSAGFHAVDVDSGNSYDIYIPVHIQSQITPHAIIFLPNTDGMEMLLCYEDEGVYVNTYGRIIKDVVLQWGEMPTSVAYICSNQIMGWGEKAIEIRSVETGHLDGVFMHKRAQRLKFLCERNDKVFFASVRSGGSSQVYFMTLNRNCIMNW
Method: as §1

MKK1 = MKK1 (Homo sapiens, UniProt Q02750); test: Selectivity screen MKK1
Method: as §1

MNK1 = MNK1 (Homo sapiens, UniProt Q9BUB5); test: Selectivity screen MNK1
Method: as §1

MPSK1 = MPSK1 (Homo sapiens, UniProt O75716); test: Selectivity screen MPSK1
Chain of MPSK1 (O75716 whole entry): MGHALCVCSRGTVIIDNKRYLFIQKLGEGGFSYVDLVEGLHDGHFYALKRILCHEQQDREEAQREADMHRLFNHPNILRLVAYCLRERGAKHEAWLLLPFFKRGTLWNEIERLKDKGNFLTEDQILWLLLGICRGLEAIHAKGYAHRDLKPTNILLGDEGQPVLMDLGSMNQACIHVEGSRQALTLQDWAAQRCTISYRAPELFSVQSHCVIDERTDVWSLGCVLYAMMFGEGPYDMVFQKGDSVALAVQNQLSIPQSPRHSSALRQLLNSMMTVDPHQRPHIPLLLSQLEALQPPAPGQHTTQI
Method: as §1

MSK1 = MSK1 (Homo sapiens, UniProt O75582); test: Selectivity screen MSK1
Method: as §1

p38g MAPK = p38g MAPK (Homo sapiens, UniProt P53778); test: Selectivity screen p38g MAPK
Method: as §1

PKCa = PKCa (Homo sapiens, UniProt P17252); test: Selectivity screen PKCa
Method: as §1

PKCγ = PKCγ (Homo sapiens, UniProt P05129); test: Selectivity screen PKCγ
Method: as §1

PLK1 = PLK1 (Homo sapiens, UniProt P53350); test: Selectivity screen PLK1
Method: as §1

RIPK2 = RIPK2 (Homo sapiens, UniProt O43353); test: Selectivity screen RIPK2
Method: as §1

SIK3 = SIK3 (Homo sapiens, UniProt Q9Y2K2); test: Selectivity screen SIK3
Method: as §1

STK33 = STK33 (Homo sapiens, UniProt Q9BYT3); test: Selectivity screen STK33
Method: as §1

TBK1 = TBK1 (Homo sapiens, UniProt Q9UHD2); test: Selectivity screen TBK1
Chain of TBK1 (Q9UHD2 whole entry): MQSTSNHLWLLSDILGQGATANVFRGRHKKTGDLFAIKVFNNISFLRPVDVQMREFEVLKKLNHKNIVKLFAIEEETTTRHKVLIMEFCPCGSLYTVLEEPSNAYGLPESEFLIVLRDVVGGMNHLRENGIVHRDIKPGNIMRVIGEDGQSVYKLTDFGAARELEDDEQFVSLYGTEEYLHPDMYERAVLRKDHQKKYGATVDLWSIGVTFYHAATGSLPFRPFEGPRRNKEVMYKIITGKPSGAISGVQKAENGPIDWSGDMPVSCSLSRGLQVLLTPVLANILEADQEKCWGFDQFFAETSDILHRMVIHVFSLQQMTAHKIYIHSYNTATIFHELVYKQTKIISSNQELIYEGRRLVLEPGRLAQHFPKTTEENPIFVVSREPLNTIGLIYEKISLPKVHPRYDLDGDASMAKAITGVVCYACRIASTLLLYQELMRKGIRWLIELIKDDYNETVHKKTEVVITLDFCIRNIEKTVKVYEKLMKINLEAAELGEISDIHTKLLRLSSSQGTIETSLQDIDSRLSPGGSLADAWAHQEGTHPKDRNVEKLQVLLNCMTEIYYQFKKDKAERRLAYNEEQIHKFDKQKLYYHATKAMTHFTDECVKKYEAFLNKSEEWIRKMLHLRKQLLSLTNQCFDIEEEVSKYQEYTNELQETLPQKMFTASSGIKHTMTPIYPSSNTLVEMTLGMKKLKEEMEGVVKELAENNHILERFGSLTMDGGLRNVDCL
Method: as §1

TIE2 = TIE2 (Homo sapiens, UniProt Q02763); test: Selectivity screen TIE2
Method: as §1

TLK1 = TLK1 (Homo sapiens, UniProt Q9UKI8); test: Selectivity screen TLK1
Method: as §1

TTBK1 = TTBK1 (Homo sapiens, UniProt Q5TCY1); test: Selectivity screen TTBK1
Method: as §1

ZAP70 = ZAP70 (Homo sapiens, UniProt P43403); test: Selectivity screen ZAP70
Chain of ZAP70 (P43403 whole entry): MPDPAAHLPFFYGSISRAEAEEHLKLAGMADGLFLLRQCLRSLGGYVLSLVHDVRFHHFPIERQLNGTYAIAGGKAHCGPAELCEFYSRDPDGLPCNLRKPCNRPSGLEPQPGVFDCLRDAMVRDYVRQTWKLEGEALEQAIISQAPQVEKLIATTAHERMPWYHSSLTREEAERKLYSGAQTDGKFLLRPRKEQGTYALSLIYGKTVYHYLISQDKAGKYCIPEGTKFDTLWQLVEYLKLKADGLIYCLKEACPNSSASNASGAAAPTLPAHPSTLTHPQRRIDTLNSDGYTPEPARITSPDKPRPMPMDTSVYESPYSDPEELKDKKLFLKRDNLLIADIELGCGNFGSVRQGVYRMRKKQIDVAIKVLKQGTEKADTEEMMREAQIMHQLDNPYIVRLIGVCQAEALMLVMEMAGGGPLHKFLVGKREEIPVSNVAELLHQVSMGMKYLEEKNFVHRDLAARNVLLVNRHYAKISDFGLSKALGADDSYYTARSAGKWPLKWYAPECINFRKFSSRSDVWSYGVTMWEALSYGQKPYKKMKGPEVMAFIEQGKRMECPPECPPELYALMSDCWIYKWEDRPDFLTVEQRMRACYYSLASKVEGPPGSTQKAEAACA
Method: as §1

Chain of Aurora A (O14965 whole entry): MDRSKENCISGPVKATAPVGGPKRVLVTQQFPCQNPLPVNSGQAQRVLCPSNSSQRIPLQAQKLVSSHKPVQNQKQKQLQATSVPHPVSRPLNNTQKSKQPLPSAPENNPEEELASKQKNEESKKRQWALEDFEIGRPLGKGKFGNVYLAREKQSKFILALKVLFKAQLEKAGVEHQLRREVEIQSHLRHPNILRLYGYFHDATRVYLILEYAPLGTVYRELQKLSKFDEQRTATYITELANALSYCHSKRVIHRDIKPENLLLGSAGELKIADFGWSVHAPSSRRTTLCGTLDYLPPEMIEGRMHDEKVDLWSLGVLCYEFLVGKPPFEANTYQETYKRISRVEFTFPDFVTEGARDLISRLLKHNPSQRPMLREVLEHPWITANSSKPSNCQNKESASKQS

Structure (SMILES)	activity remaining in the presence of the inhibitor: Aurora A (Aurora A)	activity remaining in the presence of the inhibitor: BRSK2 (BRSK2)	activity remaining in the presence of the inhibitor: CAMK1 (CAMK1)	activity remaining in the presence of the inhibitor: CAMKKb (CAMKKb)	activity remaining in the presence of the inhibitor: CDK9-Cyclin T1 (CDK9-Cyclin T1)	activity remaining in the presence of the inhibitor: CHK2 (CHK2)	activity remaining in the presence of the inhibitor: CK1γ2 (CK1γ2)	activity remaining in the presence of the inhibitor: CK2 (CK2)	activity remaining in the presence of the inhibitor: DYRK3 (DYRK3)	activity remaining in the presence of the inhibitor: EPH-A4 (EPH-A4)	activity remaining in the presence of the inhibitor: ERK5 (ERK5)	activity remaining in the presence of the inhibitor: FGF-R1 (FGF-R1)	activity remaining in the presence of the inhibitor: IKKb (IKKb)	activity remaining in the presence of the inhibitor: IR (IR)	activity remaining in the presence of the inhibitor: IRAK1 (IRAK1)	activity remaining in the presence of the inhibitor: IRAK4 (IRAK4)	activity remaining in the presence of the inhibitor: LKB1 (LKB1)	activity remaining in the presence of the inhibitor: MAP4K5 (MAP4K5)	activity remaining in the presence of the inhibitor: MARK1 (MARK1)	activity remaining in the presence of the inhibitor: MARK3 (MARK3)	other results
C=CC(=O)Nc1cccc(CNc2nc(Nc3ccc(N4CCOCC4)cc3)ncc2Cl)c1 [TL8-52]	13	87	97	22	80	75	96	103	95	99	63	49	104	15	54	77	132	63	44	21	activity remaining in the presence of the inhibitor: MINK1 (MINK1): 80; activity remaining in the presence of the inhibitor: MKK1 (MKK1): 84; activity remaining in the presence of the inhibitor: MNK1 (MNK1): 112; activity remaining in the presence of the inhibitor: MPSK1 (MPSK1): 98; activity remaining in the presence of the inhibitor: MSK1 (MSK1): 54; activity remaining in the presence of the inhibitor: p38g MAPK (p38g MAPK): 93; activity remaining in the presence of the inhibitor: PKCa (PKCa): 91; activity remaining in the presence of the inhibitor: PKCγ (PKCγ): 109; activity remaining in the presence of the inhibitor: PLK1 (PLK1): 114; activity remaining in the presence of the inhibitor: RIPK2 (RIPK2): 71; activity remaining in the presence of the inhibitor: SIK3 (SIK3): 59; activity remaining in the presence of the inhibitor: STK33 (STK33): 94; activity remaining in the presence of the inhibitor: TBK1 (TBK1): 11; activity remaining in the presence of the inhibitor: TIE2 (TIE2): 116; activity remaining in the presence of the inhibitor: TLK1 (TLK1): 82; activity remaining in the presence of the inhibitor: TTBK1 (TTBK1): 100; activity remaining in the presence of the inhibitor: ZAP70 (ZAP70): 77
C=CC(=O)Nc1cccc(CNc2nc(Nc3ccc(N4CCN(C)CC4)cc3OC)ncc2Cl)c1 [TL6-144]	94	90	68	6	95	38	82	103	95	104	87	44	100	11	81	85	91	83	87	48	activity remaining in the presence of the inhibitor: MINK1 (MINK1): 80; activity remaining in the presence of the inhibitor: MKK1 (MKK1): 79; activity remaining in the presence of the inhibitor: MNK1 (MNK1): 105; activity remaining in the presence of the inhibitor: MPSK1 (MPSK1): 91; activity remaining in the presence of the inhibitor: MSK1 (MSK1): 86; activity remaining in the presence of the inhibitor: p38g MAPK (p38g MAPK): 88; activity remaining in the presence of the inhibitor: PKCa (PKCa): 81; activity remaining in the presence of the inhibitor: PKCγ (PKCγ): 111; activity remaining in the presence of the inhibitor: PLK1 (PLK1): 107; activity remaining in the presence of the inhibitor: RIPK2 (RIPK2): 92; activity remaining in the presence of the inhibitor: SIK3 (SIK3): 89; activity remaining in the presence of the inhibitor: STK33 (STK33): 81; activity remaining in the presence of the inhibitor: TBK1 (TBK1): 78; activity remaining in the presence of the inhibitor: TIE2 (TIE2): 87; activity remaining in the presence of the inhibitor: TLK1 (TLK1): 102; activity remaining in the presence of the inhibitor: TTBK1 (TTBK1): 80; activity remaining in the presence of the inhibitor: ZAP70 (ZAP70): 86
